Data on 18 compounds can be found in patent publication US20250122183A1 (Pfizer Inc., priority 2023, published 2025).

A value given as a limit tells only on which side of the number the result lay.

What all share (type): biochemical
For one experiment, the target named is KAT5 Full length enzyme (Homo sapiens (Human), UniProt Q92993). Description: KAT5 assay (SAMDI-MS acetylation of H4 1-21 peptide). The following applies: Morrison equation fit; replicate number in parentheses; read-out: KAT5 Ki (nM) (replicate number).
Sequence of KAT5 Full length enzyme (Q92993 whole entry): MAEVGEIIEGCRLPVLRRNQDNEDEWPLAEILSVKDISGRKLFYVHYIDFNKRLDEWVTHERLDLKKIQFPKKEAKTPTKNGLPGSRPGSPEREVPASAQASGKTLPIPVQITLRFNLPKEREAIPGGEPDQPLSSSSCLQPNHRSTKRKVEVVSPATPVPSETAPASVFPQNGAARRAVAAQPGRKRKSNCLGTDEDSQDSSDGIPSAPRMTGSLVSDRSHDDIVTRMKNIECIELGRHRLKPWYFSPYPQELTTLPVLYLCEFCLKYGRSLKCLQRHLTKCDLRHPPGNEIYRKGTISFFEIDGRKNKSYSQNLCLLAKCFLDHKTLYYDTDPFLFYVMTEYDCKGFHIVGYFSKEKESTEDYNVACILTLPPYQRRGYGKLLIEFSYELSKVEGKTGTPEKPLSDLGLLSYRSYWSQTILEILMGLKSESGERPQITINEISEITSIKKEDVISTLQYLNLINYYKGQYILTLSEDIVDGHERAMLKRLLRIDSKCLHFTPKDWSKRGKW
Experiment [1] concerns the target KAT7+BRPF2+EAF6+ING5 4 protein complex (Homo sapiens (Human), UniProt O95251). In words: KAT7 BRPF2 assay (SAMDI-MS acetylation of H3 1-21 peptide). The following applies: Morrison equation fit; replicate number in parentheses; read-out: KAT7 BRPF2 Ki (nM) (replicate number).
For the next experiment, the target named is KAT8 Full length enzyme (Homo sapiens (Human), UniProt Q9H7Z6). Description: KAT8 assay (SAMDI-MS acetylation of H3 1-21 peptide). The following applies: Morrison equation fit; replicate number in parentheses; read-out: KAT8 Ki (nM) (replicate number).
Sequence of KAT8 Full length enzyme (Q9H7Z6 whole entry): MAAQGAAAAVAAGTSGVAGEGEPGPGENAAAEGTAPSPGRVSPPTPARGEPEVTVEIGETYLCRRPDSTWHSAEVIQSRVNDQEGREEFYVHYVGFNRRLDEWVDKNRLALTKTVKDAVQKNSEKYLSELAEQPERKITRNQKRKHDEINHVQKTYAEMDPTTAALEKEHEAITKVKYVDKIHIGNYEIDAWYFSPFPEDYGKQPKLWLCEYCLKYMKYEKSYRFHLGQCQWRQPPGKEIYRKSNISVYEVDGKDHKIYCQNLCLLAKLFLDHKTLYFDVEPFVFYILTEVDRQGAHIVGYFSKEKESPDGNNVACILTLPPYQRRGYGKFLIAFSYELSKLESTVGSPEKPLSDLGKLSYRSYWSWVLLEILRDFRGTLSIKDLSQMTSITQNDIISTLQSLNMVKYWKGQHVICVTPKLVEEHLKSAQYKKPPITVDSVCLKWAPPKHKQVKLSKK
The target in the next experiment is KAT6A Full length enzyme (Homo sapiens (Human), UniProt Q92794). Description: KAT6A assay (SAMDI-MS acetylation of H3 1-21 peptide). The conditions noted are these: Morrison equation fit; replicate number in parentheses; read-out: KAT6A Ki (nM) (replicate number).
Sequence of KAT6A Full length enzyme (Q92794 other isoform, or with tags, fused parts or gaps): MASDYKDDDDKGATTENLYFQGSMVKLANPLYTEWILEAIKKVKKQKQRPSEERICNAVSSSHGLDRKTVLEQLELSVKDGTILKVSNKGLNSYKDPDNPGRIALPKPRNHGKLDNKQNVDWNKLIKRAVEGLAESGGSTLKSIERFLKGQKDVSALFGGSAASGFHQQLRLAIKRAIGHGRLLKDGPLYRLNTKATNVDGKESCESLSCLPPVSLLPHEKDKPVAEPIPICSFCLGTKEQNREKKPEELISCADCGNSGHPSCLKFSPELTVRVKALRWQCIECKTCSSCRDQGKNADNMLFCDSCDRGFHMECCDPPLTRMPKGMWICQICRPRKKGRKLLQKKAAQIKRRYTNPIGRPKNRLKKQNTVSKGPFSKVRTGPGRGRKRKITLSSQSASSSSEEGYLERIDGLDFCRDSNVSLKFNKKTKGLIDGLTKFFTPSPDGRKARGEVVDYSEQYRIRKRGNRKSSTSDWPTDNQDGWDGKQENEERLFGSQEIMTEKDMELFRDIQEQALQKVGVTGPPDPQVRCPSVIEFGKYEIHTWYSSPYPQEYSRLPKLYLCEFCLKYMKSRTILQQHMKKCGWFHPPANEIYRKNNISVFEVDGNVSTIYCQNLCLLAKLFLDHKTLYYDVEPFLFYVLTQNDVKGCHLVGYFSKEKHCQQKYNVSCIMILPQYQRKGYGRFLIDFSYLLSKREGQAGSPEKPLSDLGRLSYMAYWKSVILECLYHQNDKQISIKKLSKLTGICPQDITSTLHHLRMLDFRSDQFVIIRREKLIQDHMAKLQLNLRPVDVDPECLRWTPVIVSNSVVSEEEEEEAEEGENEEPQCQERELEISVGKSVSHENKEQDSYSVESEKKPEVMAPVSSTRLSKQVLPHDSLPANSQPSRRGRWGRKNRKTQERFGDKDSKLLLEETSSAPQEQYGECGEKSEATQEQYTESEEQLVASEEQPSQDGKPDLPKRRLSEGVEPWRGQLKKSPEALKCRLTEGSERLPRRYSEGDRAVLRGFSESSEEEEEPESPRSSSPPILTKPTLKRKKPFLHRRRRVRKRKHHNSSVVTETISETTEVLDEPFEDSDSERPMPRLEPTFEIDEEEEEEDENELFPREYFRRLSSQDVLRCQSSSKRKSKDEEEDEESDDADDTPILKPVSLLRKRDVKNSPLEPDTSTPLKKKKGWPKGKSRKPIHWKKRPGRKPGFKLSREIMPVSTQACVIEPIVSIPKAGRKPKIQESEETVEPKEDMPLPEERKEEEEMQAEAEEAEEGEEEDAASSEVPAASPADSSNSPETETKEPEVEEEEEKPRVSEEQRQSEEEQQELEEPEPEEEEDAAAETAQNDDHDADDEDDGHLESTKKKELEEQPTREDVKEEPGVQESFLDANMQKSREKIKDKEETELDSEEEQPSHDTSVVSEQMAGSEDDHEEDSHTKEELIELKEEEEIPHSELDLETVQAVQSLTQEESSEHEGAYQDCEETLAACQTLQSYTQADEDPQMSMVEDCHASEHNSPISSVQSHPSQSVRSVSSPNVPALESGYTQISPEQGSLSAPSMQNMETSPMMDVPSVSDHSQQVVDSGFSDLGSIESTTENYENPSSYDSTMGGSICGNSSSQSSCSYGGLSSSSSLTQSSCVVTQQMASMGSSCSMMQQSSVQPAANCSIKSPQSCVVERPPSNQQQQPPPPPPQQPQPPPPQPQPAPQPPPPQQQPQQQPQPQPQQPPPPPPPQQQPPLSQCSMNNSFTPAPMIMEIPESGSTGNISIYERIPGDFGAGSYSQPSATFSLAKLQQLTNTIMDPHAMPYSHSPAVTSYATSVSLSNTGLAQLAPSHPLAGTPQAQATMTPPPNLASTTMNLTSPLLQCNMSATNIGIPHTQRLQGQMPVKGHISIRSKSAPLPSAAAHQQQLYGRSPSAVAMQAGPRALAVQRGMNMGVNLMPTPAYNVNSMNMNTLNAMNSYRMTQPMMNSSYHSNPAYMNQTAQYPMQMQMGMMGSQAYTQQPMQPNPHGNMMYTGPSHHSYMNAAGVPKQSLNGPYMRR
For experiment [2], the target named is KAT7+JADE1+EAF6+ING5 4 protein complex (Homo sapiens (Human), UniProt O95251). In words: KAT7 JADE1 assay (SAMDI-MS acetylation of H3 1-21 peptide). The following applies: Morrison equation fit; replicate number in parentheses; read-out: KAT7 JADE1 Ki (nM) (replicate number).
Experiment [3] concerns the target KAT7+BRPF1+EAF6+ING5 4 protein complex (Homo sapiens (Human), UniProt O95251). In words: KAT7 BRPF1 assay (SAMDI-MS acetylation of H3 1-21 peptide). The conditions noted are these: Morrison equation fit; replicate number in parentheses.

On to `CCOc1cc(C)ccc1S(=O)(=O)Nc1noc2cc(Nc3cc[nH]n3)c(OC)cc12` [Example 29, 2-ethoxy-N-{5-methoxy-6-[(1H-pyrazol-3-yl)amino]-1,2-benzoxazol-3-yl}-4-methylbenzene-1-sulfonamide], for which the inhibition constant (Ki) (in general, a dissociation constant, usually derived from enzyme kinetics or from competition with a known ligand) on KAT5 Full length enzyme is 594 nM; in experiment [1], 49.1 nM; on KAT8 Full length enzyme it was 1380 nM; at KAT6A Full length enzyme, 1 nM; in experiment [2], 182 nM; in experiment [3] it was 40.5 nM.
On to `COc1cc2c(NS(=O)(=O)c3c(OC)cccc3OCC(F)F)noc2cc1Nc1cc[nH]n1` [Example 31, 2-(2,2-difluoroethoxy)-6-methoxy-N-{5-methoxy-6-[(1H-pyrazol-3-yl)amino]-1,2-benzoxazol-3-yl}benzene-1-sulfonamide], for which the Ki was found to be 977 nM on KAT5 Full length enzyme; 104 nM in experiment [1]; 781 nM at KAT8 Full length enzyme; 0.8 nM on KAT6A Full length enzyme; 325 nM in experiment [2]; 79.9 nM in experiment [3].
As for `COc1cc2c(NS(=O)(=O)c3c(OC)cccc3OC)noc2cc1Nc1ncn(C)n1` [Example 35, 2,6-dimethoxy-N-{5-methoxy-6-[(1-methyl-1H-1,2,4-triazol-3-yl)amino]-1,2-benzoxazol-3-yl}benzene-1-sulfonamide], the inhibition constant (Ki) on KAT5 Full length enzyme was 1760 nM; in experiment [1] it was 156 nM; at KAT8 Full length enzyme, 9110 nM; at KAT6A Full length enzyme it was 3 nM; in experiment [2], 527 nM; in experiment [3] it was 48.3 nM.
Turning to `COc1cc2c(NS(=O)(=O)c3c(OC)cccc3OC)noc2cc1Nc1n[nH]c(C)n1` [Example 36, 2,6-dimethoxy-N-{5-methoxy-6-[(5-methyl-1H-1,2,4-triazol-3-yl)amino]-1,2-benzoxazol-3-yl}benzene-1-sulfonamide], the Ki at KAT5 Full length enzyme was 1080 nM; in experiment [1] it was 106 nM; at KAT8 Full length enzyme, 2990 nM; on KAT6A Full length enzyme, 1 nM; in experiment [2], 501 nM; in experiment [3] it was 93 nM.
On to `CCn1ccc(Nc2cc3onc(NS(=O)(=O)c4c(OC)cccc4OC)c3cc2OC)n1` [Example 39, N-{6-[(1-ethyl-1H-pyrazol-3-yl)amino]-5-methoxy-1,2-benzoxazol-3-yl}-2,6-dimethoxybenzene-1-sulfonamide], for which the inhibition constant Ki was 1750 nM on KAT5 Full length enzyme; 98.2 nM in experiment [1]; above 32600 nM on KAT8 Full length enzyme; 6.1 nM at KAT6A Full length enzyme; 175 nM in experiment [2]; 75.3 nM in experiment [3].
With `CCc1nc(Nc2cc3onc(NS(=O)(=O)c4c(OC)cccc4OC)c3cc2OC)n[nH]1` [Example 40, N-{6-[(5-ethyl-1H-1,2,4-triazol-3-yl)amino]-5-methoxy-1,2-benzoxazol-3-yl}-2,6-dimethoxybenzene-1-sulfonamide], the Ki at KAT5 Full length enzyme was 4600 nM; in experiment [1], 156 nM; at KAT8 Full length enzyme it was above 16300 nM; on KAT6A Full length enzyme it was 3.1 nM; in experiment [2] it was 526 nM; in experiment [3], 49.1 nM.
Regarding `CCn1cnc(Nc2cc3onc(NS(=O)(=O)c4c(OC)cccc4OC)c3cc2OC)n1` [Example 41, N-{6-[(1-ethyl-1H-1,2,4-triazol-3-yl)amino]-5-methoxy-1,2-benzoxazol-3-yl}-2,6-dimethoxybenzene-1-sulfonamide], the Ki is 3390 nM on KAT5 Full length enzyme; 94.2 nM in experiment [1]; above 16300 nM on KAT8 Full length enzyme; 6 nM on KAT6A Full length enzyme; 359 nM in experiment [2]; 25.6 nM in experiment [3].
In the case of `CCn1cc(Nc2cc3onc(NS(=O)(=O)c4c(OC)cccc4OC)c3cc2OC)nn1` [Example 42, N-{6-[(1-ethyl-1H-1,2,3-triazol-4-yl)amino]-5-methoxy-1,2-benzoxazol-3-yl}-2,6-dimethoxybenzene-1-sulfonamide], the inhibitory constant (Ki) is 7120 nM at KAT5 Full length enzyme; 30.8 nM in experiment [1]; above 16300 nM on KAT8 Full length enzyme; 10.7 nM at KAT6A Full length enzyme; 316 nM in experiment [2]; 26.7 nM in experiment [3].
As for `COc1cc(Nc2cc3onc(NS(=O)(=O)c4c(OC)cccc4OC)c3cc2OC)n[nH]1` [Example 44, 2,6-dimethoxy-N-{5-methoxy-6-[(5-methoxy-1H-pyrazol-3-yl)amino]-1,2-benzoxazol-3-yl}benzene-1-sulfonamide], the Ki on KAT5 Full length enzyme is 1000 nM; in experiment [1], 16.2 nM; at KAT8 Full length enzyme, above 16300 nM; on KAT6A Full length enzyme it was 3.4 nM; in experiment [2], 48.2 nM; in experiment [3] it was 9.8 nM.
Take `COc1cc2c(NS(=O)(=O)c3c(OC)cccc3OC)noc2cc1Nc1cc(C2CC2)n[nH]1` [Example 47, N-{6-[(3-cyclopropyl-1H-pyrazol-5-yl)amino]-5-methoxy-1,2-benzoxazol-3-yl}-2,6-dimethoxybenzene-1-sulfonamide]: the Ki on KAT5 Full length enzyme is 131 nM; in experiment [1] it was 2.2 nM; at KAT8 Full length enzyme it was 1220 nM; at KAT6A Full length enzyme, 0.8 nM; in experiment [2] it was 5 nM; in experiment [3] it was 1.9 nM.
Turning to `COc1cc2c(NS(=O)(=O)c3c(OC)cccc3OC)noc2cc1Nc1cc(C(C)C)n[nH]1` [Example 50, 2,6-dimethoxy-N-(5-methoxy-6-{[3-(propan-2-yl)-1H-pyrazol-5-yl]amino}-1,2-benzoxazol-3-yl)benzene-1-sulfonamide], the inhibition constant Ki is 634 nM at KAT5 Full length enzyme; 22.8 nM in experiment [1]; 709 nM on KAT8 Full length enzyme; 4.5 nM on KAT6A Full length enzyme; 113 nM in experiment [2]; 28.4 nM in experiment [3].
Take `COc1cc2c(NS(=O)(=O)c3c(OC)cccc3OC)noc2cc1Nc1cc(C2CCNCC2)n[nH]1` [Example 56, 2,6-dimethoxy-N-(5-methoxy-6-{[3-(piperidin-4-yl)-1H-pyrazol-5-yl]amino}-1,2-benzoxazol-3-yl)benzene-1-sulfonamide]: the Ki at KAT5 Full length enzyme stood at 22200 nM; in experiment [1], 512 nM; on KAT8 Full length enzyme, 7220 nM; at KAT6A Full length enzyme it was 3 nM; in experiment [2], 594 nM; in experiment [3] it was 157 nM.
For the compound `COc1cc2c(NS(=O)(=O)c3ccc(C)cc3OCC(F)F)noc2cc1Nc1cc(C(C)C)[nH]n1` [Example 62, 2-(2,2-difluoroethoxy)-N-(5-methoxy-6-{[5-(propan-2-yl)-1H-pyrazol-3-yl]amino}-1,2-benzoxazol-3-yl)-4-methylbenzene-1-sulfonamide], the Ki at KAT5 Full length enzyme was determined as 750 nM; in experiment [1], 35.3 nM; at KAT8 Full length enzyme, 5340 nM; on KAT6A Full length enzyme, 4.9 nM; in experiment [2], 191 nM; in experiment [3] it was 38.1 nM.
In the case of `CCOc1ccccc1S(=O)(=O)Nc1noc2cc(Nc3cc(C(C)C)[nH]n3)c(OC)cc12` [Example 63, 2-ethoxy-N-(5-methoxy-6-{[5-(propan-2-yl)-1H-pyrazol-3-yl]amino}-1,2-benzoxazol-3-yl)benzene-1-sulfonamide], the Ki on KAT5 Full length enzyme worked out at 436 nM; in experiment [1], 76.2 nM; on KAT8 Full length enzyme it was 13000 nM; on KAT6A Full length enzyme, 10.2 nM; in experiment [2], 203 nM; in experiment [3], 54.8 nM.
Regarding `COc1cc2c(NS(=O)(=O)c3ccc(C)cc3OCC(F)F)noc2cc1Nc1cc[nH]n1` [Example 64, 2-(2,2-difluoroethoxy)-N-{5-methoxy-6-[(1H-pyrazol-3-yl)amino]-1,2-benzoxazol-3-yl}-4-methylbenzene-1-sulfonamide], the inhibitory constant (Ki) was 48.1 nM on KAT5 Full length enzyme; 144 nM in experiment [1]; 550 nM at KAT8 Full length enzyme; 0.2 nM on KAT6A Full length enzyme; 136 nM in experiment [2]; 146 nM in experiment [3].
For `COc1cc2c(NS(=O)(=O)c3ccccc3OC)noc2cc1Nc1cc(C(C)C)[nH]n1` [Example 65, 2-methoxy-N-(5-methoxy-6-{[5-(propan-2-yl)-1H-pyrazol-3-yl]amino}-1,2-benzoxazol-3-yl)benzene-1-sulfonamide], the Ki was 1280 nM at KAT5 Full length enzyme; 85.4 nM in experiment [1]; above 13000 nM on KAT8 Full length enzyme; 8.6 nM at KAT6A Full length enzyme; 206 nM in experiment [2]; 57.4 nM in experiment [3].
On to `CCOc1cc(C)c(F)cc1S(=O)(=O)Nc1noc2cc(Nc3cc[nH]n3)c(OC)cc12` [Example 77, 2-ethoxy-5-fluoro-N-{5-methoxy-6-[(1H-pyrazol-3-yl)amino]-1,2-benzoxazol-3-yl}-4-methylbenzene-1-sulfonamide], for which the inhibitory constant (Ki) at KAT5 Full length enzyme turned out to be 243 nM; in experiment [1], 162 nM; on KAT8 Full length enzyme it was 2760 nM; on KAT6A Full length enzyme, 0.6 nM; in experiment [2], 213 nM; in experiment [3] it was 76.1 nM.
For the compound `CCOc1cc(C)ccc1S(=O)(=O)Nc1noc2cc(Nc3cc(C(C)C)[nH]n3)c(OC)cc12` [Example 78, 2-ethoxy-N-(5-methoxy-6-{[5-(propan-2-yl)-1H-pyrazol-3-yl]amino}-1,2-benzoxazol-3-yl)-4-methylbenzene-1-sulfonamide], the Ki stood at 354 nM at KAT5 Full length enzyme; 54.4 nM in experiment [1]; 8730 nM on KAT8 Full length enzyme; 2.5 nM on KAT6A Full length enzyme; 109 nM in experiment [2]; 40.2 nM in experiment [3].
